We go through 3 molecules from EP0059817A1, “Serpentine, alstonine and sempervirine drugs for the specific inhibition of tumurous and cancerous cells” (priority 1981, dated 1982).

In one data set the test system is tumeur MS 301. As to the kind of experiment: transplantable mammary cancer of the mouse. In kind it is in vivo, souris de souche Rh0 III. The conditions noted are these: 400 ^gg at the tumour implantation site, twice a day for 15 days from day 3; n=10; p : 0,01. The text has this: Action sur le cancer mammaire greffable de la souris • - Vingt souris de 18 à 20g, de souche Rh0 III ont été inoculées, par voie sous-cutanée, par 0,8 " d'un extrait de tumeur MS 301, broyé. Dix souris ont été gardées comme témoins; dix autres vaient, le troisième jour après l'inoculation, 400 ^gg d'alstonine au niveau de l'implantation tumorale, deux fois par jour, pendant quinze- jours. Au seizième jour, les souris étaient anesthésiées et sacrifiées, les tumeurs excisées et pesées. • - La même expérience fut effectuée avec la serpentine au lieu d'alstonine.

Data set [1] concerns lymphome YC 8. As to the kind of experiment: lymphoma YC 8 of the mouse, alstonine and cyclophosphamide. In kind it is in vivo, souris BALB C. Particulars: for survie (surviving mice/total): i.p., alstonine 400 µg par jour, 8 days from day 3, mixture with 2 mg cyclophosphamide.
The subject of data set [2] is Ascite d'Ehrlich. As to the kind of experiment: Ehrlich ascites tumour in the mouse, serpentine, alstonine, cyclophosphamide. In kind it is in vivo, souris blanches Swiss. Particulars: for definitive arrest of the Ehrlich ascites tumour (in words): each substance alone, treatment from day 4 or 5 for 10 to 15 days; for survie (surviving mice/total): I.P., serpentine 400 µg par jour, cyclophosphamide 2 ma par jour. The source says: Activité vis-à-vis des tumeurs "Ascite d'Ehrlich" chez la souris - 5 x 10^3 cellules Ascite d'Ehrlich sont inoculées à des souris blanches Swiss de 20-24 g, par voie intrapéritonéale.
Divers traitements furent appliqués dès le quatrième ou le cinquième jour et pendant dix à quinze jours. […] Un net ralentissement du développement des tumeurs est observé, mais les tumeurs repartent après arrêt du traitement dans le cas du cyclophosphamide seul, le redémarrage peut être plus tardif qu'avec la serpentine ou l'alstonine. Par contre, l'association de serpentine (400 µg par jour) et de cyclophosphamide (2 ma par jour) par voie I.P. permet d'obtenir une survie définitive (survie définitive : survie normale pendant trois mois sans perte de poids) et le pourcentage des survivants varie de 80 à 100% (Tableau IV ci-après). Les souris ainsi guéries augmentent normalement de poids et après quatre à six mois celui-ci est de 24-26 g. Leur aspect est absolument normal et rien ne les distingue de souris saines. (Dans les expériences, seule la survie sans récidive est prise en considération).
La figurer, où sont portés en abscisses le nombre de jours de traitement et en ordonnées le poids (en gramme) des souris, montre l'évolution de la tumeur d'Ehrlich chez les souris traitées, soit par la serpentine seule (courbe 2), soit par le cyclophosphamide seul (courbe 3), soit par la serpentine + cyclophosphamide (courbe 4) par voie intra- péritonéale et aux doses indiquées ci-dessus. […] Aucun de ces deux traitements ne permet d'obtenir une survie.définitive. Par contre, le mélange de serpentine et de cyclophosphamide permet d'obtenir une survie définitive.

In data set [3] the test system is Cellules primaires de reins de singe. As to the kind of experiment: cell culture cytotoxicity, normal cells. In kind it is cell-based. The conditions noted are these: 200 µg/ml; en culture de 7 jours dès l'ensemencement. As for the experimental part: Des cultures de cellules saines (cellules primaires de reins de singe, cellules de lignée "Vero" et "SIRC") et des cultures de cellules cancéreuses (cellules K.B., cellules Hela, cellules Hep II et cellules L)ont reçu une dose de 200 Mg, soit de serpentine, soit d'alstonine, soit de sempervirine, par ml de culture.
(§1) L'effet cytotoxique spécifique, vis-à-vis des cellules tumorales utilisées, ne s'est jamais démenti au cours des très nombreuses expériences effectuées. Par contre, pour effectuer les cellules saines il a fallu des quantités d'alcaloides au moins dix fois plus grandes (plus de 2 mg/ml). (Les cultures de cellules in-vitro sans mycoplàsmes ont été effectuées dans les conditions classiques et en l'absence d'antibiotique qui pourraient fausser les résultats).
(§2) Les cellules cancéreuses et saines utilisées ne contenaient pas de mycoplasmes et le milieu de culture ne contenait pas d'antibiotique, ces derniers pouvant sensibiliser les cellules et par conséquent fausser les résultats.

For data set [4], the system named is Ascite d'Ehrlich. As to the kind of experiment: Ehrlich ascites tumour in the mouse, serpentine, alstonine, cyclophosphamide. The conditions noted are these: voie sous-cutanée, doses as above. In kind it is in vivo, souris blanches Swiss.
For a further data set, the system named is virus de la grippe. In kind it is in vivo, souris SWISS. Particulars: for survie (surviving mice/total): 200 µg i.p. twice a day, 8 days.
For the next data set, the system named is Cellules K.B. As to the kind of experiment: cell culture cytotoxicity, cancer cells. The conditions noted are these: 200 µg/ml; en culture de 3 jours dès l'ensemencement. In kind it is cell-based. How it is done:
as §1, §2

In data set [5] the test system is Ascite d'Ehrlich. As to the kind of experiment: Ehrlich ascites tumour in the mouse, sempervirine. The conditions noted are these: for survie (surviving mice/total): i.p. 300 µg par jour in two doses, 10 days from day 2. In kind it is in vivo, souris BALB c. The source says: Les résultats sont présentés dans le tableau X ci-après et illustrent la survie des animaux pendant trois mois, une survie de plusieurs jours n'étant pas prise en considération.

The test system of another data set is cellules cancéreuses. As to the kind of experiment: cell culture cytotoxicity, cancer cells as a group. Particulars: 200 Mg par ml de culture; en 24 à 48 heures; K.B., Hela, Hep II, L. In kind it is cell-based. How it is done: as §1, §2
A further data set deals with cellules saines. As to the kind of experiment: cell culture cytotoxicity, healthy cells as a group. In kind it is cell-based. Particulars: 200 Mg par ml de culture; au bout de huit jours d'observation; reins de singe, Vero, SIRC. As for the experimental part:
as §1, §2

For data set [6], the system named is lymphome YC 8. As to the kind of experiment: lymphoma YC 8 of the mouse, sempervirine. In kind it is in vivo, souris BALB c. The conditions noted are these: for survie (surviving mice/total): 10 days from day 2. The text has this:
34 souris BALB c de 17-20 g sont inoculées par voie intra- péritonéale par […] ascitiques du lymphome YC 8 de la souris fraîchement prélevées et dix souris sont gardées comme témoins.
24 souris sont traitées le deuxième jour après inoculation par la sempervirine dissoute en milieu tamponné (pH 7,65) à raison de deux fois par jour par voie intrapéritonéale (300 µ g par jour) et pendant 10 jours consécutifs.
Les résultats sont présentés dans le tableau IX ci-après et illustrent la survie pendant trois mois des animaux traités. (Une survie de plusieurs jours n'est pas prise en considération).

Another data set has as its system virus de la vaccine. Further details: species or system lapin. The conditions noted are these: in vivo.

Like-named read-outs stand apart in the source and are kept apart here.

Consider `COC(=O)C1=CO[C@@H](C)[C@@H]2Cn3ccc4c5ccccc5nc-4c3C[C@H]12` [alstonine], for which the “POIDS MOYEN (en grammes) DES TUMEURS, AU 16è JOUR” value with tumeur MS 301 is 1,7 (compris entre 0,8 et 2,6) grammes. The “survie (in words)” value in the data set on lymphome YC 8 [1] (alstonine seule, same doses, voie sous-cutanée) was “ne survivent pas plus longtemps que les souris témoins”. Also, the “survie (surviving mice/total)” value was 10/10 with lymphome YC 8 [1] (day 0), 7/10 in the data set on lymphome YC 8 [1] (day 22), 4/10 in the data set with lymphome YC 8 [1] (day 60) and 4/10 in the data set on lymphome YC 8 [1] (day 90). Further, the “definitive arrest of the Ehrlich ascites tumour (in words)” value in the data set with Ascite d'Ehrlich [2] is reported as “ne peuvent définitivement arrêter la tumeur ascitique d'Ehrlich”. In addition, the destruction des cellules result is “Pas de destruction pendant 8 jours” in data set [3] and “Destruction totale en 24-48 heures” in the data set on Cellules K.B.. Moreover, the “survie and tumour evolution (in words)” value in the data set with Ascite d'Ehrlich [4] is reported as “sans effet sur la survie définitive des souris”. Also, the “activity against influenza compared with sempervirine” value with virus de la grippe (doses comparables) is recorded as “résultats tout à fait comparables”.
Regarding `O=P1(N(CCCl)CCCl)NCCCO1` (stereo not shown) [cyclophosphamide], the “outcome with cyclophosphamide alone (in words)” value with lymphome YC 8 [1] (cyclophosphamide seul) is “après 1-3 mois, l'amaigrissement est tel qu'elles meurent”. In addition, the “amaigrissement of the treated mouse” value in the data set with Ascite d'Ehrlich [2] (cyclophosphamide seul, i.p.) is “amaigrissement très fort”. Besides, the “survie (surviving mice/total)” value in the data set with Ascite d'Ehrlich [2] (day 0) is reported as 6/6; in the data set on Ascite d'Ehrlich [2] (day 25) it was 6/6; in the data set with Ascite d'Ehrlich [2] (day 35), 6/6; in the data set with Ascite d'Ehrlich [2] (day 60), 2/6; in the data set on Ascite d'Ehrlich [2] (day 120) it was 0/6. The “definitive arrest of the Ehrlich ascites tumour (in words)” value in the data set on Ascite d'Ehrlich [2] is given as “ne peuvent définitivement arrêter la tumeur ascitique d'Ehrlich”. Moreover, the “évolution de la tumeur d'Ehrlich (figure, weight of mice against days of treatment)” value in the data set on Ascite d'Ehrlich [2] (voie intrapéritonéale, doses as above, curves 2, 3, 4) was “net ralentissement du poids des tumeurs”.
On to `c1ccc2c3ccn4cc5c(cc4c-3nc2c1)CCCC5` [sempervirine], for which the “survie (surviving mice/total)” value in the data set on Ascite d'Ehrlich [5] (day 0) was 20/20; in the data set with Ascite d'Ehrlich [5] (day 21) it was 15/20; in the data set on Ascite d'Ehrlich [5] (day 60), 10/20; in the data set on Ascite d'Ehrlich [5] (day 90) it was 10/20; in the data set on virus de la grippe (day 0, Groupe B: treated from inoculation), 10/10; in the data set on virus de la grippe (day 0, Groupe C: treated from 24 h after inoculation), 10/10. Moreover, the “survie (surviving mice/total)” value with virus de la grippe (day 10, Groupe B: treated from inoculation) is listed as 10/10; in the data set on virus de la grippe (day 10, Groupe C: treated from 24 h after inoculation), 10/10; in the data set with virus de la grippe (day 16, Groupe B: treated from inoculation) it was 8/10; in the data set with virus de la grippe (day 16, Groupe C: treated from 24 h after inoculation), 6/10; with lymphome YC 8 [6] (day 0, i.p. 300 µg par jour in two doses) it was 24/24; in the data set with lymphome YC 8 [6] (day 20, i.p. 300 µ g par jour in two doses) it was 24/24. The “survie (surviving mice/total)” value with lymphome YC 8 [6] (day 60, i.p. 300 µg par jour in two doses) is 20/24; with lymphome YC 8 [6] (day 90, i.p. 300 µg par jour in two doses) it was 20/24. Moreover, the “guérison définitive, proportion of mice” value in the data set with Ascite d'Ehrlich [5] (sempervirine seule, same results in souris blanches SWISS) is listed as about 50%. In addition, the “destruction des cellules cancéreuses” value in the data set on cellules cancéreuses is on record as “toutes les cellules cancéreuses étaient détruites”. Further, the destruction des cellules result in [3] was “Pas de destruction pendant 8 jours”; with Cellules K.B., “Destruction totale en 24-48 heures”. In addition, the “lung lobes affected by the virus (congestion)” value in the data set on virus de la grippe ([…], in controls half of the lobes affected) was 0 ou 1 lobe par poumon atteint. Besides, the “destruction des cellules saines” value in the data set on cellules saines is reported as “aucune destruction des cellules saines”. Also, in the data set on lymphome YC 8 [6] (i.p. treated survivors, kept more than three months), the “state of the surviving mice” value is on record as “tout à fait normales”. In addition, the “survie (in words)” value in the data set with lymphome YC 8 [6] (voie sous-cutanée) was “ne survivent pas très longtemps après les souris témoins”. Also, the appearance of papules result with virus de la vaccine is “non apparition de papules ou apparition de papules dont la tailla est considérablement diminuée”.
